Measurements from the supplement of paper PMC11061612.

Legend:
U-698-M [1] = assay: Bliss excess, mean over the matrix (fraction); higher = more synergy; conditions: U-[…], B-Cell Non-Hodgkin's Lymphoma
Summary of the method: (§1)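 Bliss excess equals the observed combination effect minus the expected value EA + EB − EA·EB, where EA and EB are the effects of each agent alone. Combination Emax is the second-highest inhibition within the matrix. Inhibition was scaled from CellTiter-Glo 2.0 luminescence, with 0 set by vehicle wells and 1 by blank wells, after 72 hours of two-drug dosing of cells plated in 1536-well plates.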

U-698-M [2] = assay: combination Emax (second highest fraction inhibited in the dose matrix, 72 h); higher = more inhibition; conditions: B-Cell Non-Hodgkin's Lymphoma
Summary of the method: as §1

[3] = first compound max 1 µM, partner max 1 µM
[4] = first compound max 1 µM, partner max 1 µM, 7x7
[5] = first compound max 1 µM, partner max 10 µM, 7x7
[6] = first compound max 3 µM, partner max 3 µM
[7] = first compound max 1 µM, partner max 0.3 µM
[8] = first compound max 1 µM, partner max 10 µM
[9] = first compound max 1 µM, partner max 3 µM, 7x7

Structure (SMILES): CN(C)CCCOc1ccc(-c2ccc3ncc4c(c3c2)n(C2CCOCC2)c(=O)n4C)cn1 [AZD0156] + C=CCn1c(=O)c2cnc(Nc3ccc(N4CCN(C)CC4)cc3)nc2n1-c1cccc(C(C)(C)O)n1 [AZD1775]
- Bliss excess (U-698-M [1]; [3]): -0.0399
- combination Emax (U-698-M [2]; [3]): 0.984

Structure (SMILES): CN(C)CCCOc1ccc(-c2ccc3ncc4c(c3c2)n(C2CCOCC2)c(=O)n4C)cn1 [AZD0156] + CCN(CCO)CCCOc1ccc2c(Nc3cc(CC(=O)Nc4cccc(F)c4)[nH]n3)ncnc2c1 [AZD2811]
- Bliss excess (U-698-M [1]; [4]): -0.014
- combination Emax (U-698-M [2]; [4]): 0.168

Structure (SMILES): CN(C)CCCOc1ccc(-c2ccc3ncc4c(c3c2)n(C2CCOCC2)c(=O)n4C)cn1 [AZD0156] + C[C@@H]1COCCN1C2=NC(=NC(=C2)C3(CC3)[S@](=N)(=O)C)C4=C5C=CNC5=NC=C4 [AZD6738]
- Bliss excess (U-698-M [1]; [5]): 0.0473
- combination Emax (U-698-M [2]; [5]): 0.978

Structure (SMILES): CN(C)CCCOc1ccc(-c2ccc3ncc4c(c3c2)n(C2CCOCC2)c(=O)n4C)cn1 [AZD0156] + O=C(c1cc(Cc2n[nH]c(=O)c3ccccc23)ccc1F)N1CCN(C(=O)C2CC2)CC1 [Olaparib]
- Bliss excess (U-698-M [1]; [6]): 0.0153
- combination Emax (U-698-M [2]; [6]): 0.378

Structure (SMILES): C=CCn1c(=O)c2cnc(Nc3ccc(N4CCN(C)CC4)cc3)nc2n1-c1cccc(C(C)(C)O)n1 [AZD1775] + C1CN(CCC1(C(=O)N[C@@H](CCO)C2=CC=C(C=C2)Cl)N)C3=NC=NC4=C3C=CN4 [Capivasertib]
- Bliss excess (U-698-M [1]; [6]): -0.0654
- combination Emax (U-698-M [2]; [6]): 0.959

Structure (SMILES): C=CCn1c(=O)c2cnc(Nc3ccc(N4CCN(C)CC4)cc3)nc2n1-c1cccc(C(C)(C)O)n1 [AZD1775] + CCc1c2c(nc3ccc(O)cc13)-c1cc3c(c(=O)n1C2)COC(=O)[C@]3(O)CC [SN-38]
- Bliss excess (U-698-M [1]; [7]): 0.0364
- combination Emax (U-698-M [2]; first compound max 1 µM, partner max 0.3 µM, may be a limit of the assay): 1

Structure (SMILES): C=CCn1c(=O)c2cnc(Nc3ccc(N4CCN(C)CC4)cc3)nc2n1-c1cccc(C(C)(C)O)n1 [AZD1775] + C[C@@H]1COCCN1C2=NC(=NC(=C2)C3(CC3)[S@](=N)(=O)C)C4=C5C=CNC5=NC=C4 [AZD6738]
- Bliss excess (U-698-M [1]; [8]): 0.0479
- combination Emax (U-698-M [2]; first compound max 1 µM, partner max 10 µM, may be a limit of the assay): 1

Structure (SMILES): C=CCn1c(=O)c2cnc(Nc3ccc(N4CCN(C)CC4)cc3)nc2n1-c1cccc(C(C)(C)O)n1 [AZD1775] + Nc1ccn([C@@H]2O[C@H](CO)[C@@H](O)C2(F)F)c(=O)n1 [Gemcitabine]
- Bliss excess (U-698-M [1]; [7]): 0.116
- combination Emax (U-698-M [2]; [7]): 0.956

Structure (SMILES): C=CCn1c(=O)c2cnc(Nc3ccc(N4CCN(C)CC4)cc3)nc2n1-c1cccc(C(C)(C)O)n1 [AZD1775] + O=C(c1cc(Cc2n[nH]c(=O)c3ccccc23)ccc1F)N1CCN(C(=O)C2CC2)CC1 [Olaparib]
- Bliss excess (U-698-M [1]; [8]): -0.0077
- combination Emax (U-698-M [2]; [8]): 0.967

Structure (SMILES): CCN(CCO)CCCOc1ccc2c(Nc3cc(CC(=O)Nc4cccc(F)c4)[nH]n3)ncnc2c1 [AZD2811] + C=CCn1c(=O)c2cnc(Nc3ccc(N4CCN(C)CC4)cc3)nc2n1-c1cccc(C(C)(C)O)n1 [AZD1775]
- Bliss excess (U-698-M [1]; [3]): -0.0493
- combination Emax (U-698-M [2]; [3]): 0.956

Structure (SMILES): CCN(CCO)CCCOc1ccc2c(Nc3cc(CC(=O)Nc4cccc(F)c4)[nH]n3)ncnc2c1 [AZD2811] + C[C@@H]1COCCN1C2=NC(=NC(=C2)C3(CC3)[S@](=N)(=O)C)C4=C5C=CNC5=NC=C4 [AZD6738]
- Bliss excess (U-698-M [1]; [5]): 0.0016
- combination Emax (U-698-M [2]; [5]): 0.956

Structure (SMILES): CCN(CCO)CCCOc1ccc2c(Nc3cc(CC(=O)Nc4cccc(F)c4)[nH]n3)ncnc2c1 [AZD2811] + O=C(c1cc(Cc2n[nH]c(=O)c3ccccc23)ccc1F)N1CCN(C(=O)C2CC2)CC1 [Olaparib]
- Bliss excess (U-698-M [1]; [5]): 0.0384
- combination Emax (U-698-M [2]; [5]): 0.479

Structure (SMILES): CN(CCO)CC[C@H](CSc1ccccc1)Nc1ccc(S(=O)(=O)NC(=O)c2ccc(N3CCC([C@@H](O)c4ccccc4-c4ccc(Cl)cc4)CC3)cc2)cc1S(=O)(=O)C(F)(F)F [AZD4320] + C1CN(CCC1(C(=O)N[C@@H](CCO)C2=CC=C(C=C2)Cl)N)C3=NC=NC4=C3C=CN4 [Capivasertib]
- Bliss excess (U-698-M [1]; [9]): 0.0056
- combination Emax (U-698-M [2]; [9]): 0.272
